Literature values, collected in US20220061318A1, “ANTIMICROBIAL PREVENTIVE NETTING” (University of Washington, priority 2020, published 2022).

Conditions: photosensitizer, singlet oxygen generation; riboflavin value depends on the test conditions

SMILES	quantum yield
CN(C)c1ccc2nc3ccc(=[N+](C)C)cc-3sc2c1 [Methylene blue, methylene blue]	0.52
O=C1OC2(c3ccccc31)c1cc(I)c(O)c(I)c1Oc1c2cc(I)c(O)c1I [erythrosine]	around 0.6
